Read-outs that look alike come from different tables or passages of the source.
Experiments:
EGFR(L861Q)(h) = target: T1, EGFR(L861Q)(h) (Homo sapiens, UniProt P00533, L861Q); assay: Kinase panel; assay type: biochemical
T1 construct: purchased Millipore KinaseProfiler

NEK2(h) = target: T2, NEK2(h) (Homo sapiens, UniProt P51955); assay: Kinase panel; assay type: biochemical
T2 construct: purchased Millipore KinaseProfiler
T2 sequence (P51955 1-445): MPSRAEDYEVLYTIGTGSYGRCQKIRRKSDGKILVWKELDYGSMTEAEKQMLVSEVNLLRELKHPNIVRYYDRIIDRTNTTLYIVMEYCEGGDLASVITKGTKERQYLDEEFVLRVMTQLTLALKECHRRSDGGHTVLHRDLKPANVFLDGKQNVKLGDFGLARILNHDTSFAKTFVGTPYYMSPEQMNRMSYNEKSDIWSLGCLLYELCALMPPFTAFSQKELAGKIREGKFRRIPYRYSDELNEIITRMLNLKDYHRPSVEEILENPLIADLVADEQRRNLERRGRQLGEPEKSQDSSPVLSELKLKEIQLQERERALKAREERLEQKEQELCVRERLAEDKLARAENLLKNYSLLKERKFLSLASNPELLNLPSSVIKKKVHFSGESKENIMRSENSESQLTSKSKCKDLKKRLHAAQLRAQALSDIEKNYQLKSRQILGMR

[1] = tested on: phospho-PRAS40 in BT474 tumor xenografts; assay: In vivo dose response pharmacodynamic assay (phospho-PRAS40 ELISA); design: species or system mouse; conditions: 2 h post last dose
Experimental: Protein lysates were analyzed by phospho-PRAS40 ELISA according to the methods described above. Concentration of the test compounds in the tissue and blood was analyzed using protein precipitation with acetonitrile, followed by HPLC/MS/MS analysis using positive ion atmospheric pressure chemical ionization or Turbo ionspray ionization (API 4000 or API 5000, Applied Biosystems). The lower level of detection of compound was 10 ng/mL and the assays were linear over a 100- to a 1000-fold drug concentration range.

cKit(V654A)(h) = target: T3, cKit(V654A)(h) (Homo sapiens, UniProt P10721, V654A); assay: Kinase panel; assay type: biochemical
T3 construct: purchased Millipore KinaseProfiler
T3 sequence (P10721 26-976 V654A): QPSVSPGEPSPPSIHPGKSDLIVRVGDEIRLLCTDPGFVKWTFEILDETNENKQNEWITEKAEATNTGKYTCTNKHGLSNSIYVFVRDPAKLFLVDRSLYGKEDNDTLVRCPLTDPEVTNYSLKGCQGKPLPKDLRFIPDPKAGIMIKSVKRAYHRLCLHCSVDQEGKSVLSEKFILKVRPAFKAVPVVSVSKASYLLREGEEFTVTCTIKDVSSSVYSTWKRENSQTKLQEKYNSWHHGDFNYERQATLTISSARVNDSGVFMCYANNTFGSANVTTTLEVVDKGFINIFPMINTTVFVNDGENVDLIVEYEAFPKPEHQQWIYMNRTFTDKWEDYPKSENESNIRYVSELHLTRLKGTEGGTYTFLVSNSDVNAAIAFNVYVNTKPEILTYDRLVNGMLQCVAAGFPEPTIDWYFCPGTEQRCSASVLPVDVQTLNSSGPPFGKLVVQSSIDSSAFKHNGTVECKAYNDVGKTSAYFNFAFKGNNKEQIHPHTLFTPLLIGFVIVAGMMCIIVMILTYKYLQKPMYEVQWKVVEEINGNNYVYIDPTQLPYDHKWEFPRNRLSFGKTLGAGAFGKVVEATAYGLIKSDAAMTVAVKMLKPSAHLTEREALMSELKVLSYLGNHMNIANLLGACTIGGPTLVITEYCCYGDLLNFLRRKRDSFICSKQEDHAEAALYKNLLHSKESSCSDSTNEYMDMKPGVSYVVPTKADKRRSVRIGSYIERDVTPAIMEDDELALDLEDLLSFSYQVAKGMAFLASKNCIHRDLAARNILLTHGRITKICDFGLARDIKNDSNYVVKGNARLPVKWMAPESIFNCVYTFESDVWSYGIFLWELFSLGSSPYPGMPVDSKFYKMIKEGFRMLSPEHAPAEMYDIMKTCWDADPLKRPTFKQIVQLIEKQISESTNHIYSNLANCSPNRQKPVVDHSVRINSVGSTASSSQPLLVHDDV

Ret(V804M)(h) = target: T4, Ret(V804M)(h) (Homo sapiens, UniProt P07949, V804M); assay: Kinase panel; assay type: biochemical
T4 construct: purchased Millipore KinaseProfiler
T4 sequence (P07949 29-1114 V804M): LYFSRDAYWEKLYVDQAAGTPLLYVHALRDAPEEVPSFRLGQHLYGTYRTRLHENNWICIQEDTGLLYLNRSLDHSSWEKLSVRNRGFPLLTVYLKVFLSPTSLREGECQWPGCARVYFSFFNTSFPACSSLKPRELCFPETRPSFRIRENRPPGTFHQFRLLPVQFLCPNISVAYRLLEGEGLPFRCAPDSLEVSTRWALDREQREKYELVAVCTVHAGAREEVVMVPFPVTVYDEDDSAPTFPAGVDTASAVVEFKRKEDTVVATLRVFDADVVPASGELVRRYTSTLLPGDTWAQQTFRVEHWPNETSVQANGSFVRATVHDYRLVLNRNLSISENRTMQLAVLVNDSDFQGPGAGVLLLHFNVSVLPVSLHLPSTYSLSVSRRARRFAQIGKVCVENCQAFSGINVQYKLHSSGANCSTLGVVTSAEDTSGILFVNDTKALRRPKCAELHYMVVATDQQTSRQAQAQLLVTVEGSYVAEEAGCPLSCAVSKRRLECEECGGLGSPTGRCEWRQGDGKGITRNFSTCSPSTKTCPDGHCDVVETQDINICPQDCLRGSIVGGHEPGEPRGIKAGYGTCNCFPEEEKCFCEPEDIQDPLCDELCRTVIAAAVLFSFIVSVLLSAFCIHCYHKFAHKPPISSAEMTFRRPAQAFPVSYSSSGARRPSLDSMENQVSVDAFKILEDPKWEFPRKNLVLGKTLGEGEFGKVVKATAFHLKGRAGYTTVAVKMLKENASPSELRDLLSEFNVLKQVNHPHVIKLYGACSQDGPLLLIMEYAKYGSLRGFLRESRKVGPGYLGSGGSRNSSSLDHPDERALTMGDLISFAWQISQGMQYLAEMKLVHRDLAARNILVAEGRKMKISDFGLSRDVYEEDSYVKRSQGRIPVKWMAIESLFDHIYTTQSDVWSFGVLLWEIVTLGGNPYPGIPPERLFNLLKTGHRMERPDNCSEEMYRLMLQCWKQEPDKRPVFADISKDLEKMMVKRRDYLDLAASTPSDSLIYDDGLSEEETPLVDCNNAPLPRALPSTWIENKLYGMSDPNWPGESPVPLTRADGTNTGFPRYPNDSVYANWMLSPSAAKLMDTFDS

PKCδ(h) = target: T5, PKCδ(h) (Homo sapiens, UniProt Q05655); assay: Kinase panel; assay type: biochemical
T5 construct: purchased Millipore KinaseProfiler
T5 sequence (Q05655 whole entry): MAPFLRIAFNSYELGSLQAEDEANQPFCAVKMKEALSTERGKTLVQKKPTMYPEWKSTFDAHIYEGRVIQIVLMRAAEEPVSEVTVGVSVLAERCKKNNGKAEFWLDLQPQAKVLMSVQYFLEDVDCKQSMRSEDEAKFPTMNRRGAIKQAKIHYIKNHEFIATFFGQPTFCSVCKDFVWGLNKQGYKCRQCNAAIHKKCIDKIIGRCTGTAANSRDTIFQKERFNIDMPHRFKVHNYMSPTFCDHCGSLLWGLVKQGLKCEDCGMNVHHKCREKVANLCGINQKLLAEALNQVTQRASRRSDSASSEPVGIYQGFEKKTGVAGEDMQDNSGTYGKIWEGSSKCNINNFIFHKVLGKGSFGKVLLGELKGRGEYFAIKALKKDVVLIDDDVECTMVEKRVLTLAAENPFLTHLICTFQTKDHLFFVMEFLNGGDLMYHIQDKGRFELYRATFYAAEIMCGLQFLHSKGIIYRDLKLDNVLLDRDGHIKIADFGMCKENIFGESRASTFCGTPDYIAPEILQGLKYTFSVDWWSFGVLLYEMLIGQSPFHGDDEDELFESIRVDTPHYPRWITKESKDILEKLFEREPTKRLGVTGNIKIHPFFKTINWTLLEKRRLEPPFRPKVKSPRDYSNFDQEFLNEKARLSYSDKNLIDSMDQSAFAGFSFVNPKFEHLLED

MKK6(h) = target: T6, MKK6(h) (Homo sapiens, UniProt P52564); assay: Kinase panel; assay type: biochemical
T6 construct: purchased Millipore KinaseProfiler
T6 sequence (P52564 1-334): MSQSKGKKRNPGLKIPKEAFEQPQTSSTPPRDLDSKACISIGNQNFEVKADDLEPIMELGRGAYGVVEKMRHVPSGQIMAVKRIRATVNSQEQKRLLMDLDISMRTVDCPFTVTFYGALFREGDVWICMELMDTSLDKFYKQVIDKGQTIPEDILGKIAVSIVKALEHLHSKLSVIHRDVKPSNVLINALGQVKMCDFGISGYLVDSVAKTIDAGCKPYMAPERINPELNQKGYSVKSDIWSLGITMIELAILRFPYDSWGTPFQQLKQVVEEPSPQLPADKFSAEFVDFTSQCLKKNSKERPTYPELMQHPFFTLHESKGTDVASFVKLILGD

PKG1β = PKG1β (Homo sapiens, UniProt Q13976); assay: Kinase IC50 assay; assay type: biochemical
Flt4(h) = target: T7, Flt4(h) (Homo sapiens, UniProt P35916); assay: Kinase panel; assay type: biochemical
T7 construct: purchased Millipore KinaseProfiler

HIPK3(h) = target: T8, HIPK3(h) (Homo sapiens, UniProt Q9H422); assay: Kinase panel; assay type: biochemical
T8 construct: purchased Millipore KinaseProfiler

Itk(h) = target: T9, Itk(h) (Homo sapiens, UniProt Q08881); assay: Kinase panel; assay type: biochemical
T9 construct: purchased Millipore KinaseProfiler
T9 sequence (Q08881 1-620): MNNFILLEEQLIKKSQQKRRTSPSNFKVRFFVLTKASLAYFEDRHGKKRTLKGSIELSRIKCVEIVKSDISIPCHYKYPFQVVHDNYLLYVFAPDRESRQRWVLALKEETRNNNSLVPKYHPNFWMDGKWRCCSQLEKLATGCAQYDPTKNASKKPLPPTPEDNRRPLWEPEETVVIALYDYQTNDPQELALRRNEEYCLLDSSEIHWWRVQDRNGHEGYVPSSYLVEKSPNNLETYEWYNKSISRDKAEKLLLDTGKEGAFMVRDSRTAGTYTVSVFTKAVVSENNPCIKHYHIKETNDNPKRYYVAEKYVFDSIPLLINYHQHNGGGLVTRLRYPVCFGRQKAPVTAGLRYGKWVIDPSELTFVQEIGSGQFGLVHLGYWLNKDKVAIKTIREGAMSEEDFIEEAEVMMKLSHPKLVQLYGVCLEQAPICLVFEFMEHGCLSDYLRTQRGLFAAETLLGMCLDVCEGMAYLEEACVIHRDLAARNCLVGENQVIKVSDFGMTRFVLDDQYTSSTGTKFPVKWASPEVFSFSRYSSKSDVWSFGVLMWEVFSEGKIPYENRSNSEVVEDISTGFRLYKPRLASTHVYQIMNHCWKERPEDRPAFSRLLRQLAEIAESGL

FAK(h) = target: T10, FAK(h) (Homo sapiens, UniProt Q05397); assay: Kinase panel; assay type: biochemical
T10 construct: purchased Millipore KinaseProfiler
T10 sequence (Q05397 whole entry): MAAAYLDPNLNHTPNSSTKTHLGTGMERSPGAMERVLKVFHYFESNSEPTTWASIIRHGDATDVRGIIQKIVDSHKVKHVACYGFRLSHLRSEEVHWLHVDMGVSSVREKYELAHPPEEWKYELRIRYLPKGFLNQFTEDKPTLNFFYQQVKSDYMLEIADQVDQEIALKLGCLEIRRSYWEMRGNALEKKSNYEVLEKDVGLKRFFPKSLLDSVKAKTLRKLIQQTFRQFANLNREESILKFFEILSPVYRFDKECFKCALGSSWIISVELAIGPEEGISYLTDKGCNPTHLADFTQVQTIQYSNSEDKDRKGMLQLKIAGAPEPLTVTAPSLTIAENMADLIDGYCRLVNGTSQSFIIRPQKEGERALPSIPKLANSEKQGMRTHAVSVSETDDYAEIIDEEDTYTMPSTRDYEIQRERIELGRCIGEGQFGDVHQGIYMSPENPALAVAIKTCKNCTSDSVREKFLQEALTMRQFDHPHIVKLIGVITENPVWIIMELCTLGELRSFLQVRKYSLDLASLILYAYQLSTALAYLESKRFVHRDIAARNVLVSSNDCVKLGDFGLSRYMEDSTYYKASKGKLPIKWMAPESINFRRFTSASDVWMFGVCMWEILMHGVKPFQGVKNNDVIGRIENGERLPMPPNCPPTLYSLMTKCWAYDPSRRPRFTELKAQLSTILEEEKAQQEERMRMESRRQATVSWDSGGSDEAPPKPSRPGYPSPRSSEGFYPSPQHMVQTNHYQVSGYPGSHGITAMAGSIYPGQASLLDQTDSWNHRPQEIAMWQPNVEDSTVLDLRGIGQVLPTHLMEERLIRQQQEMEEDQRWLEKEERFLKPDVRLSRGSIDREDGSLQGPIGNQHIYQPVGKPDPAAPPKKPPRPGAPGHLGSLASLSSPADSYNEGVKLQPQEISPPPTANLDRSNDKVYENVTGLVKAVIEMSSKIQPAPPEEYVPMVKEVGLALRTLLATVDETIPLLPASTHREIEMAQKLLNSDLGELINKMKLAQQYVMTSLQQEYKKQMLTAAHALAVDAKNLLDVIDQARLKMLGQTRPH

CaMKI(h) = target: T11, CaMKI(h) (Homo sapiens, UniProt Q14012); assay: Kinase panel; assay type: biochemical
T11 construct: purchased Millipore KinaseProfiler

Abl (Q252H) (h) = target: T12, Abl (Q252H) (h) (Homo sapiens, UniProt P00519, Q252H); assay: Kinase panel; assay type: biochemical
T12 construct: purchased Millipore KinaseProfiler

T1 sequence (P00533 25-1210 L861Q): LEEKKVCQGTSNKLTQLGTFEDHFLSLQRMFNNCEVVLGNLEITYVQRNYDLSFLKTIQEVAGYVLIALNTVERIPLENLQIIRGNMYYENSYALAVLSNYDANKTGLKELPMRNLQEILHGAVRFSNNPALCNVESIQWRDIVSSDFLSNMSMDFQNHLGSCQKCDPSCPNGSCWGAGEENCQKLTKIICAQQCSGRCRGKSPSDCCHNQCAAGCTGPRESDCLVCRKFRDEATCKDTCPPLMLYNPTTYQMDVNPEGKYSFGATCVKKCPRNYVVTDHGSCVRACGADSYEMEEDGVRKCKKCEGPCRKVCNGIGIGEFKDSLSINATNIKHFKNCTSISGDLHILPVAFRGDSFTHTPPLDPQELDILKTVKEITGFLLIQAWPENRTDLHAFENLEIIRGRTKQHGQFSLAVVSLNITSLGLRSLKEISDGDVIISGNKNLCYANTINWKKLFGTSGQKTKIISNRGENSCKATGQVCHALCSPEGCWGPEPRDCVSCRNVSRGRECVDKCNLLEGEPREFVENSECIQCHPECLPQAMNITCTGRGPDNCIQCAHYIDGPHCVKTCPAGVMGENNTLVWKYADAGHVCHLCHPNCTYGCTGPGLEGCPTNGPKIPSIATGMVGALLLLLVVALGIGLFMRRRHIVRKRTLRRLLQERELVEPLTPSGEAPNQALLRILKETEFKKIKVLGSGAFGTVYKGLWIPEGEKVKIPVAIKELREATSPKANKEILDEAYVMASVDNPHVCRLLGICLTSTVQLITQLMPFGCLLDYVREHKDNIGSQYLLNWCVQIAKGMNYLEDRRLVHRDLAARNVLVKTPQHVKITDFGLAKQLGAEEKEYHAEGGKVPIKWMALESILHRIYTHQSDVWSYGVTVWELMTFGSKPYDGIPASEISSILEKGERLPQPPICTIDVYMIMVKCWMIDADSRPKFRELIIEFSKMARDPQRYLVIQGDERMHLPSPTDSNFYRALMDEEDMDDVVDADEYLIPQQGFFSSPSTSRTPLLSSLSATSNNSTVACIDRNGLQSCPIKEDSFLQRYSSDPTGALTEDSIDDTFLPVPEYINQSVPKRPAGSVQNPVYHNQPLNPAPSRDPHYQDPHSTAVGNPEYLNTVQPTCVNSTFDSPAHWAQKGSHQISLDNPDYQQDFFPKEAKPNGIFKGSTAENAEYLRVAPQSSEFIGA

Cn1ncc(Cl)c1-c1cc(C(=O)N[C@H](CN)Cc2cccc(F)c2)sc1Cl [GSK2110183]
inhibition at 0.5 µM (EGFR(L861Q)(h)): -4% | inhibition at 10 µM (EGFR(L861Q)(h)): 21% | inhibition at 0.5 µM (NEK2(h)): -10% | inhibition at 10 µM (NEK2(h)): -8% | decrease of PRAS40 phosphorylation in tumors ([1]; 10 mg/kg QDx7 oral): 8% | decrease of PRAS40 phosphorylation in tumors ([1]; 30 mg/kg QDx7 oral): 37% | decrease of PRAS40 phosphorylation in tumors ([1]; 100 mg/kg QDx7 oral): 61% | inhibition at 0.5 µM (cKit(V654A)(h)): -9% | inhibition at 10 µM (cKit(V654A)(h)): -9% | inhibition at 0.5 µM (Ret(V804M)(h)): 5% | inhibition at 10 µM (Ret(V804M)(h)): 26% | inhibition at 0.5 µM (PKCδ(h)): 48% | inhibition at 10 µM (PKCδ(h)): 92% | inhibition at 0.5 µM (MKK6(h)): 6% | inhibition at 10 µM (MKK6(h)): 36% | IC50 (PKG1β): 4 nM | inhibition at 0.5 µM (Flt4(h)): 4% | inhibition at 10 µM (Flt4(h)): 21% | inhibition at 0.5 µM (HIPK3(h)): -3% | inhibition at 10 µM (HIPK3(h)): 72% | inhibition at 0.5 µM (Itk(h)): 0% | inhibition at 10 µM (Itk(h)): 2% | inhibition at 0.5 µM (FAK(h)): 1% | inhibition at 10 µM (FAK(h)): 39% | inhibition at 0.5 µM (CaMKI(h)): 3% | inhibition at 10 µM (CaMKI(h)): 24% | inhibition at 0.5 µM (Abl (Q252H) (h)): 6% | inhibition at 10 µM (Abl (Q252H) (h)): 11%

Cn1ncc(Cl)c1-c1cc(C(=O)N[C@H](CN)Cc2ccc(F)c(F)c2)oc1Cl [GSK2141795]
inhibition at 0.5 µM (EGFR(L861Q)(h); 0.5 µM, read-out: % Inhibition): -13% | inhibition at 10 µM (EGFR(L861Q)(h); 10 µM, read-out: % Inhibition): 21% | inhibition at 0.5 µM (NEK2(h); 0.5 µM, read-out: % Inhibition): -4% | inhibition at 10 µM (NEK2(h); 10 µM, read-out: % Inhibition): 2% | decrease of PRAS40 phosphorylation in tumors ([1]; 30 mg/kg QDx7 oral): 62% | inhibition at 0.5 µM (cKit(V654A)(h); 0.5 µM, read-out: % Inhibition): -2% | inhibition at 10 µM (cKit(V654A)(h); 10 µM, read-out: % Inhibition): -3% | inhibition at 0.5 µM (Ret(V804M)(h); 0.5 µM, read-out: % Inhibition): -2% | inhibition at 10 µM (Ret(V804M)(h); 10 µM, read-out: % Inhibition): 25% | inhibition at 0.5 µM (PKCδ(h); 0.5 µM, read-out: % Inhibition): 67% | inhibition at 10 µM (PKCδ(h); 10 µM, read-out: % Inhibition): 85% | inhibition at 0.5 µM (MKK6(h); 0.5 µM, read-out: % Inhibition): 14% | inhibition at 10 µM (MKK6(h); 10 µM, read-out: % Inhibition): 66% | IC50 (PKG1β): < 1 nM | inhibition at 0.5 µM (Flt4(h); 0.5 µM, read-out: % Inhibition): -6% | inhibition at 10 µM (Flt4(h); 10 µM, read-out: % Inhibition): 23% | inhibition at 0.5 µM (HIPK3(h); 0.5 µM, read-out: % Inhibition): 7% | inhibition at 10 µM (HIPK3(h); 10 µM, read-out: % Inhibition): 63% | inhibition at 0.5 µM (Itk(h); 0.5 µM, read-out: % Inhibition): -15% | inhibition at 10 µM (Itk(h); 10 µM, read-out: % Inhibition): -7% | inhibition at 0.5 µM (FAK(h); 0.5 µM, read-out: % Inhibition): -3% | inhibition at 10 µM (FAK(h); 10 µM, read-out: % Inhibition): 5% | inhibition at 0.5 µM (CaMKI(h); 0.5 µM, read-out: % Inhibition): -30% | inhibition at 10 µM (CaMKI(h); 10 µM, read-out: % Inhibition): 16% | inhibition at 0.5 µM (Abl (Q252H) (h); 0.5 µM, read-out: % Inhibition): -1% | inhibition at 10 µM (Abl (Q252H) (h); 10 µM, read-out: % Inhibition): 3%
